According to patent US8710224B2, “Heterocyclic compounds as CCR2B antagonists” (AstraZeneca AB, priority 2004, dated 2014):

Each compound was assayed against T1, recombinant human CCR5 receptor (Homo sapiens, UniProt P51681) (assay: Radioligand binding assay for inhibition of the binding of MIP-1α). Conditions: displacement of 0.1 nM iodinated MIP-1α; membranes of Chinese hamster ovary cells expressing CCR5.
T1 construct: expressed in transfected cells; host or cells: Chinese hamster ovary (CHO) cells; membranes
T1 sequence (P51681 whole entry): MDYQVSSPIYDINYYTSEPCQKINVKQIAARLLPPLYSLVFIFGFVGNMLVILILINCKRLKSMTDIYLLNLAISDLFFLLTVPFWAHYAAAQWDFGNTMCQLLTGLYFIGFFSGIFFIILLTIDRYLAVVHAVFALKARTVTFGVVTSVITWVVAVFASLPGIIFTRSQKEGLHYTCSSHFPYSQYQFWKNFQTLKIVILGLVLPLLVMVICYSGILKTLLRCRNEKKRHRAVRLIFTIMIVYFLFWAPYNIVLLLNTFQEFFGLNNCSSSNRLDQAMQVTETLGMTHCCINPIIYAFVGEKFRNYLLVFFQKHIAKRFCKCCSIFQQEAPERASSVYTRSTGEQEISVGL
Procedure, shortened: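 Membranes from CHO cells expressing recombinant human CCR5 were incubated with 0.1 nM iodinated MIP-1α, scintillation proximity beads and compound at various concentrations. Bound radioligand was measured by scintillation counting.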

IC50, < 10 µM:
C[C@@H](CC(C)(C)O)N1CCO[C@@H](CN2CCN(C(=O)Nc3ccc(F)c(Cl)c3)CC2)C1 [Example 235, N-(3-chloro-4-fluorophenyl)-4-({(2S)-4-[(1S)-3-hydroxy-1,3-dimethylbutyl]morpholin-2-yl}methyl)piperazine-1-carboxamide]
O=C(Nc1ccc(Cl)c(Cl)c1)N1CCN(C[C@@H]2CCCN(C3CCC(O)CC3)C2)CC1 (stereo partly drawn) [Example 145, N-(3,4-dichlorophenyl)-4-{[(3S)-1-(4-hydroxycyclohexyl)piperidin-3-yl]methyl}piperazine-1-carboxamide]
CC(C)N1CCC[C@@H](CN2CCN(C(=O)Nc3ccc(Cl)c(Cl)c3)CC2)C1 [Example 84, N-(3,4-dichlorophenyl)-4-{[(3S)-1-isopropylpiperidin-3-yl]methyl}piperazine-1-carboxamide]
CC(CC(C)(C)O)N1CCN[C@@H](C(=O)N2CCN(C(=O)Nc3ccc(Cl)c(Cl)c3)CC2)C1 (stereo partly drawn) [Example 269, N-(3,4-dichlorophenyl)-4-{[(2R)-4-(3-hydroxy-1,3-dimethylbutyl)piperazin-2-yl]carbonyl}piperazine-1-carboxamide]
CC(C)N1CCO[C@@H](CN2CCN(C(=O)Nc3ccc(Cl)c(Cl)c3)CC2)C1 [Example 119, N-(3,4-dichlorophenyl)-4-{[(2S)-4-isopropylmorpholin-2-yl]methyl}piperazine-1-carboxamide]
O=C(Nc1ccc(Cl)c(Cl)c1)N1CCN(C[C@@H]2CCCN(Cc3c[nH]nc3-c3ccccc3)C2)CC1 [Example 200, N-(3,4-Dichlorophenyl)-4-({(3R)-1-[(3-phenyl-1H-pyrazol-4-yl)methyl]piperidin-3-yl}methyl)piperazine-1-carboxamide]
CS(=O)(=O)c1ccc(CCCN2CCC[C@@H](CN3CCN(C(=O)Nc4ccccc4)CC3)C2)cc1 [Example 254, 4-[[(3R)-1-[3-(4-methylsulfonylphenyl)propyl]-3-piperidyl]methyl]-N-phenyl-piperazine-1-carboxamide]
CN1CCN[C@@H](C(=O)N2CCN(C(=O)Nc3ccc(Cl)c(Cl)c3)CC2)C1 [Example 210, N-(3,4-Dichlorophenyl)-4-{[(2R)-4-methylpiperazin-2-yl]carbonyl}piperazine-1-carboxamide]
CC(C)N1CCN[C@@H](C(=O)N2CCN(C(=O)Nc3nc(C(F)(F)F)cs3)CC2)C1 [Example 290, 4-{[(2R)-4-Isopropylpiperazin-2-yl]carbonyl}-N-[4-(trifluoromethyl)-1,3-thiazol-2-yl]piperazine-1-carboxamide]
O=C(Nc1ccc(Cl)c(Cl)c1)N1CCN(C[C@@H]2CCCN(Cc3ccc(Cl)nc3)C2)CC1 [Example 256, 4-({(3R)-1-[(6-chloropyridin-3-yl)methyl]piperidin-3-yl}methyl)-N-(3,4-dichlorophenyl)piperazine-1-carboxamide]
O=C(Nc1ccccc1)N1CCN(C[C@@H]2CCCN(CCc3ccc(Cl)c(Cl)c3)C2)CC1 [Example 253, 4-[[(3R)-1-[2-(3,4-dichlorophenyl)ethyl]-3-piperidyl]methyl]-N-phenyl piperazine-1-carboxamide]
O=C(Nc1ccc(Cl)c(Cl)c1)N1CCN(C(=O)[C@H]2CN(C3CCC3)CCN2)CC1 [Example 275, 4-{[(2R)-4-Cyclobutylpiperazin-2-yl]carbonyl}-N-(3,4-dichlorophenyl)piperazine-1-carboxamide]
O=C(Nc1ccc(Cl)c(Cl)c1)N1CCN(C[C@H]2CN(C3CCOCC3)CCO2)CC1 [Example 121, N-(3,4-dichlorophenyl)-4-{[(2S)-4-(tetrahydro-2H-pyran-4-yl)morpholin-2-yl]methyl}piperazine-1-carboxamide]
CC(C)N1CCN[C@@H](C(=O)N2CCN(C(=O)Nc3cccc(Cl)c3)CC2)C1 [Example 211, N-(3-chlorophenyl)-4-{[(2R)-4-isopropylpiperazin-2-yl]carbonyl}piperazine-1-carboxamide]
N#C/N=C(\Nc1ccc(Cl)c(Cl)c1)N1CCN(C[C@@H]2CCCN(CCc3ccccc3)C2)CC1 [Example 79, N-cyano-N-(3,4-dichlorophenyl)-4-{[(3R)-1-(2-phenylethyl)piperidin-3-yl]methyl}piperazine-1-carboximidamide]
CC(C)(C)c1cc(NC(=O)N2CCN(C[C@@H]3CCCN(C4CC4)C3)CC2)no1 [Example 112, N-(5-tert-butylisoxazol-3-yl)-4-{[(3S)-1-cyclopropylpiperidin-3-yl]methyl}piperazine-1-carboxamide]
N#Cc1ccc(OCCN2CCC[C@@H](CN3CCN(C(=O)Nc4ccc(Cl)c(Cl)c4)CC3)C2)cc1 [Example 170, 4-({(3S)-1-[2-(4-Cyanophenoxy)ethyl]piperidin-3-yl}methyl)-N-(3,4-dichlorophenyl)piperazine-1-carboxamide]
CS(=O)(=O)c1ccc(CCCN2CCC[C@@H](CN3CCN(C(=O)Nc4ccc(C(F)(F)F)cc4)CC3)C2)cc1 [Example 326, 4-[((3R)-1-{3-[4-(Methylsulfonyl)phenyl]propyl}piperidin-3-yl)methyl]-N-[4-(trifluoromethyl)phenyl]piperazine-1-carboxamide]
CC(C)N1CCN[C@@H](C(=O)N2CCN(C(=O)Nc3cccc(C(F)(F)F)c3)CC2)C1 [Example 214, 4-{[(2R)-4-isopropylpiperazin-2-yl]carbonyl}-N-[3-(trifluoromethyl)phenyl]piperazine-1-carboxamide]
O=C(Nc1ccc(Cl)c(Cl)c1)N1CCN(C[C@@H]2CCN([C@H]3CC[C@](O)(c4nccs4)CC3)C2)CC1 [Example 229, N-(3,4-dichlorophenyl)-4-({(3S)-1-[cis-4-hydroxy-4-(1,3-thiazol-2-yl)cyclohexyl]pyrrolidin-3-yl}methyl)piperazine-1-carboxamide]
O=C(Nc1ccc(Cl)c(Cl)c1)N1CCN(C(=O)[C@H]2CN(CC3CCOC3)CCN2)CC1 (stereo partly drawn) [Example 271, N-(3,4-dichlorophenyl)-4-{[(2R)-4-(tetrahydrofuran-3-ylmethyl)piperazin-2-yl]carbonyl}piperazine-1-carboxamide]
CC(C)N1CCN[C@@H](C(=O)N2CCN(C(=O)Nc3cc(F)cc(C(F)(F)F)c3)CC2)C1 [Example 288, N-[3-Fluoro-5-(trifluoromethyl)phenyl]-4-{[(2R)-4-isopropylpiperazin-2-yl]carbonyl}piperazine-1-carboxamide]
O=C(Nc1ccc(Cl)c(Cl)c1)N1CCN(C(=O)[C@H]2CN(CC3CC3)CCN2)CC1 [Example 268, 4-{[(2R)-4-(cyclopropylmethyl)piperazin-2-yl]carbonyl}-N-(3,4-dichlorophenyl)piperazine-1-carboxamide]
O=C(Nc1ccc(Cl)c(Cl)c1)N1CCN(C[C@H]2CN(C3CCC(O)CC3)CCO2)CC1 (stereo partly drawn) [Example 122, N-(3,4-dichlorophenyl)-4-{[(2S)-4-(4-hydroxycyclohexyl)morpholin-2-yl]methyl}piperazine-1-carboxamide]
